The values that follow come from ChEMBL document CHEMBL1155520, “Novel 8a-aza-8a-homoerythromycin--4''-(3-substituted-amino)propionates with broad spectrum antibacterial activity” (2010).

What all share (format): functional
The test system of assay [1] is Streptococcus pyogenes. The assay is described as follows: Antimicrobial activity against macrolide-sensitive Streptococcus pyogenes 3665.
Assay [2] deals with Streptococcus pneumoniae. The assay is described as follows: Antimicrobial activity against inducible macrolide and constitutive lincosamide, streptogramin-resistant Streptococcus pneumoniae 4636.
A further assay concerns Staphylococcus aureus. Briefly: Antimicrobial activity against macrolide-sensitive Staphylococcus aureus ATCC 13709.
In a further assay the test system is Haemophilus influenzae. The assay is described as follows: Antimicrobial activity against Haemophilus influenzae ATCC 49247.
The subject of assay [3] is Streptococcus pneumoniae. Briefly: Antimicrobial activity against macrolide-sensitive Streptococcus pneumoniae SPO 30.
Assay [4] relates to Streptococcus pneumoniae. The assay is described as follows: Antimicrobial activity against macrolide-resistant Streptococcus pneumoniae Ci137.
Assay [5] deals with Streptococcus pyogenes. Briefly: Antimicrobial activity against inducible macrolide, lincosamide, streptogramin-resistant Streptococcus pyogenes Finland 11.

In brackets after ≈: the same amount, converted by molar mass. Bounds are passed on as bounds.

Regarding `CC[C@H]1OC(=O)[C@H](C)[C@@H](O[C@H]2C[C@@](C)(OC)[C@@H](OC(=O)CCNCC(=O)Nc3ccc([N+](=O)[O-])cc3)[C@H](C)O2)[C@H](C)[C@@H](O[C@@H]2O[C@H](C)C[C@H](N(C)C)[C@H]2O)[C@](C)(O)C[C@@H](C)NC(=O)[C@H](C)[C@@H](O)[C@]1(C)O`, the MIC in the assay with Streptococcus pyogenes [1] is under 0.13 µg/mL; against Streptococcus pneumoniae [2], 32 µg/mL (≈ 32.1 µM); against Staphylococcus aureus, 2 µg/mL (≈ 2 µM); against Haemophilus influenzae it was 8 µg/mL (≈ 8.01 µM); with Streptococcus pneumoniae [3] it was under 0.13 µg/mL; against Streptococcus pneumoniae [4] it was 4 µg/mL (≈ 4.01 µM). Besides, the MIC in the assay on Streptococcus pyogenes [5] is 4 µg/mL (≈ 4.01 µM).
Take `CC[C@H]1OC(=O)[C@H](C)[C@@H](O[C@H]2C[C@@](C)(OC)[C@@H](OC(=O)CCN3CCN(C(=O)c4ccco4)CC3)[C@H](C)O2)[C@H](C)[C@@H](O[C@@H]2O[C@H](C)C[C@H](N(C)C)[C@H]2O)[C@](C)(O)C[C@@H](C)NC(=O)[C@H](C)[C@@H](O)[C@]1(C)O`: the MIC in the assay with Streptococcus pyogenes [1] was under 0.13 µg/mL; in the assay with Streptococcus pneumoniae [2] it was over 64 µg/mL; in the assay on Staphylococcus aureus it was 4 µg/mL (≈ 4.07 µM); in the assay on Haemophilus influenzae, 16 µg/mL (≈ 16.3 µM); against Streptococcus pneumoniae [3], under 0.13 µg/mL; against Streptococcus pneumoniae [4], 2 µg/mL (≈ 2.03 µM). In the assay with Streptococcus pyogenes [5], this molecule registered an MIC of 8 µg/mL (≈ 8.14 µM).
Turning to `CC[C@H]1OC(=O)[C@H](C)[C@@H](O[C@H]2C[C@@](C)(OC)[C@@H](OC(=O)CCNCC(=O)Nc3ccc4ccccc4c3)[C@H](C)O2)[C@H](C)[C@@H](O[C@@H]2O[C@H](C)C[C@H](N(C)C)[C@H]2O)[C@](C)(O)C[C@@H](C)NC(=O)[C@H](C)[C@@H](O)[C@]1(C)O`, the MIC against Streptococcus pyogenes [1] is under 0.13 µg/mL; against Streptococcus pneumoniae [2], 32 µg/mL (≈ 31.9 µM); in the assay with Staphylococcus aureus it was 4 µg/mL (≈ 3.99 µM); against Haemophilus influenzae, 4 µg/mL (≈ 3.99 µM); with Streptococcus pneumoniae [3], under 0.13 µg/mL; against Streptococcus pneumoniae [4] it was 2 µg/mL (≈ 1.99 µM). This molecule registered an MIC in the assay with Streptococcus pyogenes [5] of 8 µg/mL (≈ 7.97 µM).
Regarding `CC[C@H]1OC(=O)[C@H](C)[C@@H](O[C@H]2C[C@@](C)(OC)[C@@H](OC(=O)CCN[C@@H](C)c3ccc([N+](=O)[O-])cc3)[C@H](C)O2)[C@H](C)[C@@H](O[C@@H]2O[C@H](C)C[C@H](N(C)C)[C@H]2O)[C@](C)(O)C[C@@H](C)NC(=O)[C@H](C)[C@@H](O)[C@]1(C)O`, the MIC in the assay on Streptococcus pyogenes [1] was under 0.13 µg/mL; with Streptococcus pneumoniae [2], 16 µg/mL (≈ 16.5 µM); against Staphylococcus aureus, 4 µg/mL (≈ 4.13 µM); in the assay with Haemophilus influenzae, 8 µg/mL (≈ 8.25 µM); in the assay with Streptococcus pneumoniae [3] it was under 0.13 µg/mL; with Streptococcus pneumoniae [4] it was 4 µg/mL (≈ 4.13 µM). Further, the MIC with Streptococcus pyogenes [5] amounted to 4 µg/mL (≈ 4.13 µM).
In the case of `CC[C@H]1OC(=O)[C@H](C)[C@@H](O[C@H]2C[C@@](C)(OC)[C@@H](OC(=O)CCN[C@H](C)c3ccc([N+](=O)[O-])cc3)[C@H](C)O2)[C@H](C)[C@@H](O[C@@H]2O[C@H](C)C[C@H](N(C)C)[C@H]2O)[C@](C)(O)C[C@@H](C)NC(=O)[C@H](C)[C@@H](O)[C@]1(C)O`, the MIC in the assay with Streptococcus pyogenes [1] is under 0.13 µg/mL; with Streptococcus pneumoniae [2] it was 32 µg/mL (≈ 33 µM); against Staphylococcus aureus it was 4 µg/mL (≈ 4.13 µM); against Haemophilus influenzae, 4 µg/mL (≈ 4.13 µM); in the assay on Streptococcus pneumoniae [3], under 0.13 µg/mL; against Streptococcus pneumoniae [4] it was 4 µg/mL (≈ 4.13 µM). In the assay on Streptococcus pyogenes [5], this molecule came in with an MIC of 8 µg/mL (≈ 8.25 µM).
In the case of `CC[C@H]1OC(=O)[C@H](C)[C@@H](O[C@H]2C[C@@](C)(OC)[C@@H](OC(=O)CCN[C@@H](C)C(=O)Nc3ccc4ccccc4c3)[C@H](C)O2)[C@H](C)[C@@H](O[C@@H]2O[C@H](C)C[C@H](N(C)C)[C@H]2O)[C@](C)(O)C[C@@H](C)NC(=O)[C@H](C)[C@@H](O)[C@]1(C)O`, the MIC against Streptococcus pyogenes [1] is under 0.13 µg/mL; in the assay on Streptococcus pneumoniae [2], 32 µg/mL (≈ 31.5 µM); against Staphylococcus aureus, 2 µg/mL (≈ 1.97 µM); in the assay on Haemophilus influenzae, 2 µg/mL (≈ 1.97 µM); against Streptococcus pneumoniae [3], under 0.13 µg/mL; against Streptococcus pneumoniae [4] it was 0.5 µg/mL (≈ 0.492 µM). For the same molecule, in the assay with Streptococcus pyogenes [5], the MIC came to 8 µg/mL (≈ 7.86 µM).
For `CC[C@H]1OC(=O)[C@H](C)[C@@H](O[C@H]2C[C@@](C)(OC)[C@@H](OC(=O)CCN[C@@H](C)C(=O)Nc3ccc([N+](=O)[O-])cc3)[C@H](C)O2)[C@H](C)[C@@H](O[C@@H]2O[C@H](C)C[C@H](N(C)C)[C@H]2O)[C@](C)(O)C[C@@H](C)NC(=O)[C@H](C)[C@@H](O)[C@]1(C)O`, the MIC with Streptococcus pyogenes [1] was under 0.13 µg/mL; with Streptococcus pneumoniae [2], 32 µg/mL (≈ 31.6 µM); in the assay on Staphylococcus aureus it was 4 µg/mL (≈ 3.95 µM); with Haemophilus influenzae it was 4 µg/mL (≈ 3.95 µM); with Streptococcus pneumoniae [3], under 0.13 µg/mL; in the assay with Streptococcus pneumoniae [4] it was 2 µg/mL (≈ 1.98 µM). This molecule also gave an MIC against Streptococcus pyogenes [5] of 4 µg/mL (≈ 3.95 µM).
Take `CC[C@H]1OC(=O)[C@H](C)[C@@H](O[C@H]2C[C@@](C)(OC)[C@@H](OC(=O)CCN3CCN(C(=O)c4ccco4)CC3)[C@H](C)O2)[C@H](C)[C@@H](O[C@@H]2O[C@H](C)C[C@H](N(C)C)[C@H]2O)[C@](C)(OC)C[C@@H](C)NC(=O)[C@H](C)[C@@H](O)[C@]1(C)O`: the MIC is under 0.13 µg/mL against Streptococcus pyogenes [1]; 32 µg/mL (≈ 32.1 µM) against Streptococcus pneumoniae [2]; 2 µg/mL (≈ 2.01 µM) with Staphylococcus aureus; 4 µg/mL (≈ 4.01 µM) against Haemophilus influenzae; under 0.13 µg/mL with Streptococcus pneumoniae [3]; 2 µg/mL (≈ 2.01 µM) with Streptococcus pneumoniae [4]. In the assay with Streptococcus pyogenes [5], this molecule came in with an MIC of 16 µg/mL (≈ 16 µM).
